Test results as given in patent US20260365990A1, “METHOD FOR THE PRESERVATION OF FUNCTIONAL GAMETES” (Julius-Maximilians-Universität Würzburg, in Vertretung des …, priority 2022, published 2026).
“Also recorded” adds a separate entry of the source.

Experiments:
spermatozoa [1] = experiment: Computer assisted sperm analysis (CASA, CEROS II) of human spermatozoa treated with CO vs. without CO: total motility, progressive motility, average path velocity (VAP); format: cell-based; details: for Change in progressive motility (ratio treated/untreated) / Change of VAP (ratio treated/untreated) / Change in motility (ratio treated/untreated) / Change in velocity of the sperm cells (VAP, ratio treated/untreated): mean±SD
Experimental: (§1) Between 1.46 mL and 5.7 mL human semen/spermatozoa were collected from healthy males of between 25 and 50 years of age in 100 mL sample vials on site. Samples were then divided into two equal fractions each for subsequent incubation with CO (wCO) and without CO (woCO). In order to estimate the spermatozoa concentration in the samples and to establish an initial baseline for each sample, a routine spermiogram was performed before samples were transferred to gas-tight 15 mL Falcon tubes. Samples were incubated at 25-35 °C for 90 minutes with and without an activated CORS system in a closed container. During this incubation period liquefaction took place naturally. The samples were then analyzed for total motility, progressive motility, static oxidation-reduction potential, and for DNA fragmentation. Total motility, progressive motility and concentration of the samples were assessed using a CEROS II (Hamilton Thorne, Beverly, MA) computer assisted sperm analysis (CASA) system. 6 μL of a sperm sample diluted 1:1 with Multipurpose Handling Medium-Complete (MHM-C, FujiFilm/IrvineScientific, Santa Ana, CA) was measured and the concentration and level of mobility (total and progressive motility) was assessed.
(§2) In this example, sperm samples were treated with either one, three, or six CORS capsules, each loaded with 5 mg Mo-CORM (corresponds to 0.44 mL CO) for 60 to 270 mins, or left untreated for the same amount of time.
(§3) Human sperm was collected from healthy volunteers in 100 ml specimen containers. Afterwards, the ejaculate was split into equal parts and filled into 15 mL gas tight falcon tubes, with one of the samples being exposed to one or more activated CORS. Then, both samples were analyzed for motility parameters via computer assisted sperm analysis (CASA), the static oxidation-reduction potential (sORP) via MiOXSYS and sperm DNA-fragmentation (SDF) via dispersion test with Halosperm G2 Kit after a predetermined time.
Total motility, progressive motility, VAP, and concentration of the samples were tested using a CEROS II (Hamilton Thorne, Beverly, MA) computer assisted sperm analysis (CASA) system. 6 μL of a sperm sample diluted 1:1 with Multipurpose Handling Medium-Complete (MHM-C, Fuji Film/Irvine Scientific, Santa Ana, CA) was investigated with the CASA system, and the level of mobility was assessed.

spermatozoa [2] = experiment: Static oxidation-reduction potential (sORP) of human sperm samples by MiOXSYS; format: cell-based; details: for Change in oxidation-reduction potential (sORP, ratio treated/untreated): mean±SD; for Oxidation-reduction potential, samples 42_1 and 38_7 (in words): samples with drastically elevated untreated values, FIGS. 7D and 8D
Experimental: as §1
A Male Infertility Oxidative System (MiOXSYS, Englewood, CO) was used to determine static oxidation-reduction potential (sORP) levels. 30 μL of the sperm samples were transferred to the sample application port on a MiOXSYS sensor and analyzed for 2 minutes.
as §2, §3
An oxidative male infertility measuring System (MiOXSYS, Englewood, CO) was used to determine static oxidation-reduction potential (SORP) levels following manufacturer's specifications. 30 μL of sample were transferred to the sample application port onto a MiOXSYS sensor and analyzed for 2 minutes. The results were expressed in milli Volt (mV) and normalized to the seminal sperm concentration (mV/106 sperm/mL).

spermatozoa [3] = experiment: Sperm DNA fragmentation (SDF) by dispersion test, Halosperm G2 Kit; format: cell-based, human; details: for DNA-fragmentation change (SDF, ratio treated/untreated): mean±SD
Experimental: as §1
To determine DNA fragmentation a count-based microscopy assay was performed. For this spermatozoa samples were diluted using MHM-C (Multipurpose Handling Medium-Complete, FujiFilm, IrvineScientific) to a maximum of 20×E6 spermatozoa per mL and analyzed using a Halo Sperm G2 Kit (Halotech, Madrid, Spain). Samples were mixed with the prepared agarose according to manufacturer instructions. 8 μL of the resulting mixture was then put on microscopy slides and cooled down for 5 minutes by removing the heat source. The prepared samples were further treated according to the manufacturer's instructions: denaturant for 7 minutes, lysis solution for 20 minutes, distilled water for 5 minutes, 70% ethanol for 2 minutes, 100% ethanol for 2 minutes, eosin staining solution for 7-10 minutes, and thiazine staining solution for 7-10 minutes. At least 300 spermatozoa were then analyzed using a bright field microscope.
as §2, §3
Sperm DNA fragmentation (SDF) was assessed via dispersion test using a Halosperm G2 Kit (From Halotech, Madrid, Spain) following manufacturer's specifications. In brief, the samples were diluted to a maximum of 20 mio/mL. The samples were, then, mixed with the prepared agarose. 8 μL of the mixture was transferred on slides and cooled down for 5 minutes. Different reagents were added and discarded after the set time: Denaturant agent was added for 7 minutes, lysis solution for 20 minutes, distilled water for 5 minutes, 70% ethanol for 2 minutes, 100% ethanol for 2 minutes, eosin staining solution for 7-10 minutes, and thiazine staining solution for 7-10 minutes. A minimum of 400 sperms were analyzed using an Olympus IX73 Inverted LED Fluorescence Microscope.

[4] = 0.44 mL CO (5 mg Mo-CORM), 90 min
[5] = 1.32 mL CO (15 mg Mo-CORM), 60 min
[6] = 1.32 mL CO (15 mg Mo-CORM), 90 min
[7] = 1.32 mL CO (15 mg Mo-CORM), 180 min
[8] = 1.32 mL CO (15 mg Mo-CORM), 270 min
[9] = 2.64 mL CO (30 mg Mo-CORM), 90 min
[10] = Example 3, up to 90 min, 0.44-2.64 mL CO
[11] = Example 3, 60 min and 90 min, 0.44 mL and 1.32 mL CO

[C-]#[O+] [CO, carbon monoxide]
Change in progressive motility (ratio treated/untreated) (spermatozoa [1]; [4]): 0.97±0.12 fold
Change of VAP (ratio treated/untreated) (spermatozoa [1]; [4]): 1.01±0.08 fold
Change in motility (ratio treated/untreated) (spermatozoa [1]; 0.44 mL CO (5 mg Mo-CORM, one CORS), 90 min): 0.98±0.12 fold
Change in progressive motility (ratio treated/untreated) (spermatozoa [1]; [5]): 0.85±0.13 fold
Change in velocity of the sperm cells (VAP, ratio treated/untreated) (spermatozoa [1]; [5]): 0.94±0.09 fold
Change in motility (ratio treated/untreated) (spermatozoa [1]; [6]): 0.99±0.03 fold
Change in progressive motility (ratio treated/untreated) (spermatozoa [1]; [6]): 0.92±0.17 fold
Change in velocity of the sperm cells (VAP, ratio treated/untreated) (spermatozoa [1]; [6]): 0.96±0.04 fold
Change in motility (ratio treated/untreated) (spermatozoa [1]; [7]): 1.16±0.37 fold
Change in progressive motility (ratio treated/untreated) (spermatozoa [1]; [7]): 0.72±0.19 fold
Change in velocity of the sperm cells (VAP, ratio treated/untreated) (spermatozoa [1]; [7]): 0.79±0.13 fold
Change in motility (ratio treated/untreated) (spermatozoa [1]; [8]): 0.94±0.20 fold
Change in progressive motility (ratio treated/untreated) (spermatozoa [1]; [8]): 1.04±0.48 fold
Change in velocity of the sperm cells (VAP, ratio treated/untreated) (spermatozoa [1]; [8]): 0.97±0.08 fold
Change in motility (ratio treated/untreated) (spermatozoa [1]; 1.32 mL CO (15 mg Mo-CORM, three CORS), 60 min): 1.13±0.41 fold
Change in progressive motility (ratio treated/untreated) (spermatozoa [1]; [9]): 0.88±0.10 fold
Change of VAP (ratio treated/untreated) (spermatozoa [1]; [9]): 1.03±0.03 fold
Change in motility (ratio treated/untreated) (spermatozoa [1]; 2.64 mL CO (30 mg Mo-CORM, six CORS), 90 min): 0.90±0.12 fold
Relative total motility wCO/woCO (in words) (spermatozoa [1]; Example 2, 15 mg Mo-CORM, 90 min, 25-35 °C, 5 subjects, FIG. 4A): no differences between samples that were contacted with CO (wCO) and without CO (woCO)
Relative progressive motility wCO/woCO (in words) (spermatozoa [1]; Example 2, 15 mg Mo-CORM, 90 min, 25-35 °C, 5 subjects, FIG. 4B, exception subject 6): progressive motility is increased for wCO as compared to woCO; also recorded: an improvement of progressive motility
Effect on spermatozoan motility (in words) (spermatozoa [1]; Example 3, 60 min or 90 min, 0.44 mL or 1.32 mL CO): no negative effects on spermatozoan motility
Effect on progressive motility vs untreated (in words) (spermatozoa [1]; [10]): did not impair sperm motility, progressive motility
Effect on sperm motility vs untreated (in words) (spermatozoa [1]; [10]): did not impair sperm motility
Effect on velocity vs untreated (in words) (spermatozoa [1]; [10]): did not impair sperm motility, progressive motility, and velocity
Change in oxidation-reduction potential (sORP, ratio treated/untreated) (spermatozoa [2]; [4]): 0.89±0.17 fold
Change in oxidation-reduction potential (sORP, ratio treated/untreated) (spermatozoa [2]; [5]): 0.57±0.35 fold
Change in oxidation-reduction potential (sORP, ratio treated/untreated) (spermatozoa [2]; [6]): 0.91±0.12 fold
Change in oxidation-reduction potential (sORP, ratio treated/untreated) (spermatozoa [2]; [7]): 1.02±0.32 fold
Change in oxidation-reduction potential (sORP, ratio treated/untreated) (spermatozoa [2]; [8]): 1.13±0.28 fold
Change in oxidation-reduction potential (sORP, ratio treated/untreated) (spermatozoa [2]; [9]): 0.59±0.24 fold
Correlation of CO effect on sORP with untreated sORP (in words) (spermatozoa [2]; 60 min and 90 min, 15 mg CORM, FIG. 9): particularly effective in subjects that suffer from high sperm oxidation-reduction potential
Relative oxidation-reduction potential wCO/woCO (in words) (spermatozoa [2]; Example 2, 15 mg Mo-CORM, 90 min, 25-35 °C, 6 subjects, FIG. 2): show a trend to be lower in the samples that were contacted with CO; also recorded: a reduction in oxidative stress/ROS
Oxidation-reduction potential vs untreated (in words) (spermatozoa [2]; [11]): reduced
Oxidation-reduction potential, samples 42_1 and 38_7 (in words) (spermatozoa [2]): strong reduction
Oxidation-reduction potential, samples 42_1 and 38_7 (in words) (spermatozoa [2]; listed as carbon monoxide): reduced oxidation-reduction potential
DNA-fragmentation change (SDF, ratio treated/untreated) (spermatozoa [3]; [4]): 0.83±0.09 fold
DNA-fragmentation change (SDF, ratio treated/untreated) (spermatozoa [3]; [5]): 0.77±0.07 fold
DNA-fragmentation change (SDF, ratio treated/untreated) (spermatozoa [3]; [6]): 0.67±0.24 fold
DNA-fragmentation change (SDF, ratio treated/untreated) (spermatozoa [3]; [7]): 0.90±0.11 fold
DNA-fragmentation change (SDF, ratio treated/untreated) (spermatozoa [3]; [8]): 0.90±0.19 fold
DNA-fragmentation change (SDF, ratio treated/untreated) (spermatozoa [3]; [9]): 1.31±0.55 fold
Correlation of CO effect on SDF with untreated SDF (in words) (spermatozoa [3]; 60 min and 90 min, 15 mg CORM, FIG. 10): particularly effective in subjects that suffer from high sperm oxidation-reduction potential and/or DNA-fragmentation
Relative DNA fragmentation wCO/woCO (in words) (spermatozoa [3]; Example 2, 15 mg Mo-CORM, 90 min, 25-35 °C, 3 subjects, FIG. 3): DNA fragmentation is reduced in samples that were contacted with CO; also recorded: a reduction in DNA fragmentation
DNA fragmentation, subjects 3 and 4 (in words) (spermatozoa [3]; Example 2, FIG. 3, treated vs untreated aliquots of same donor): less DNA fragmentation
Spermatozoan DNA-fragmentation (SDF) vs untreated (in words) (spermatozoa [3]; [11]): reduced
DNA fragmentation, samples 42_1 and 38_7 (in words) (spermatozoa [3]; samples with drastically elevated untreated values, FIGS. 7E and 8E): strong reduction
